Data on six compounds can be found in patent US20220089600A1, “TGFß INHIBITOR AND PRODRUGS” (FUNDACIÓ INSTITUT DE RECERCA BIOMÈDICA (IRB BARCELONA), priority 2018, published 2022).

Data set [1] has as its target T1, Cre-ER^T2 fusion protein in MEFs (Homo sapiens, UniProt P03372, G400V/L544A/M543A/V595A).
T1 construct: Cre recombinase (fusion partner); host or cells: mouse embryonic fibroblasts from UbC-Cre-ER^T2; mTmG transgenic mice; the other entry of the earlier key: cre (P06956, Recombinase cre)
T1 sequence (P03372 with tags, fused parts or gaps G400V/M543A/L544A/V595A): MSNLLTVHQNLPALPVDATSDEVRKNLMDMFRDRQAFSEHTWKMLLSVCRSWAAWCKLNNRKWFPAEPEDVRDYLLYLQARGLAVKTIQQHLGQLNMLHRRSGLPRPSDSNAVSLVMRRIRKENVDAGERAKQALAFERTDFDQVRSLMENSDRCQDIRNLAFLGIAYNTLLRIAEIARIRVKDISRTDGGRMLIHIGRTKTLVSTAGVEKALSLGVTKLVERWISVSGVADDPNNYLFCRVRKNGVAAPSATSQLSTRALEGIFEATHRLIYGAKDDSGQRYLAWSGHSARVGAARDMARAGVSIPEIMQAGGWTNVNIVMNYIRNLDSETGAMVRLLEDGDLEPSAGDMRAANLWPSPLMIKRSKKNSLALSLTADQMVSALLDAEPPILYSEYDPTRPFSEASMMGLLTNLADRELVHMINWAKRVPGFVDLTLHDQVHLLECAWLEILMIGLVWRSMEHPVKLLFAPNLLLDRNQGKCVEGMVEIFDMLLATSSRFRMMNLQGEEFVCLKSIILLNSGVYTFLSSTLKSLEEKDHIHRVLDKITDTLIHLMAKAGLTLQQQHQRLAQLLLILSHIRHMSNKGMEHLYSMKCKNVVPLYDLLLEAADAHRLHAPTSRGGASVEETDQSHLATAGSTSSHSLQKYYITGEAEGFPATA
As to the kind of experiment: Co-culture MEF recombination assay (mTmG reporter, FACS). Type of data set: cell-based, mouse.
From the text: The mouse model carries recombination reporter mTmG (JAX stock: 007676). This system expresses the membrane bound tdTomato (tandem dimer tomato; mT stands for membrane Tomato), which is a red fluorescent protein. Upon recombination with an activated Cre enzyme, the coding sequence for mT as well as a stop codon, being between loxP sites, is excised. […] Effectively this means that in the presence of a Cre enzyme, or in the presence of a 4-OHT activated Cre-ER^T2 fusion protein, the cells stop their production of tdTomato and proceed to express the EGFP; this genetic switch can be efficiently quantified by flow cytometry analysis. The mouse strain expressing mTmG was then crossed to a mouse carrying a Cre-ER^T2 fusion protein in all cells (UbC-Cre-ER^T2; Jax Stock: 008085). From the dual transgenic mouse, as well as from the reporter strain without Cre-ER^T2, MEFs were harvested from 14-day-old embryos. Briefly, pregnant females were sacrificed 14 days after plug formation, uteri were removed, and embryos were dissected: heads and fetal livers were discarded. The rest was minced and digested with trypsin and grown in 10-cm plates with aforementioned supplemented DMEM.
MEF recombination: MTO129, transduced with pLenti PGK-LigF (puro) or with an equivalent empty vector was trypsinized and single cells added onto UbC-Cre-ER^T2; mTmG (or control mTmG-only) MEFs grown in 12-well plates. The next day, either Z-4-OHT or the prodrug of formula VII was added in concentrations ranging from 1000 to 1 nM. Two days later, cells were trypsinized and analyzed by flow cytometry for TdTomato/EGFP fluorescence (Gallios, Beckman Coulter). Fluorescence was analyzed on viable cells in 2 dimensions and scored as percentages in the 4 quadrants. EGFP positive quadrants (Q2 and Q4, with or without TdTomato) were considered recombined and the fraction of the total was calculated. Data are the average (+SD) from two independent experiments.

Data set [2] deals with NTCF4-ER^T2 fusion protein in LS174T cells. As to the kind of experiment: Co-culture LS174T-NTCF4-ER^T2 gene expression assay. Type of data set: cell-based. As to conditions: 16h.
Method: These LS-NE cells were cultured in DMEM supplemented with L-glutamine and 10% fetal bovine serum (Life Technologies) at 37° C. and 5% CO2.
HEK293T cells transduced with pLenti PGK-LigF (puro) or with an equivalent empty vector were co-plated with LS174T-NTCF4-ER^T2 (LS-NE) cells, in a ratio of 1/10 in 6-well plates. Co-cultures were treated with DMSO, 1 μM Z-4-OHT or the prodrug of formula VII at 1 or 10 μM. After 16h, cells were lysed in trizol for RNA extraction (PureLink RNA Mini Kit, Life Technologies) and cDNA preparation (High Capacity cDNA RT kit, Applied Biosysytems). […] Data in FIG. 11 were normalized to the housekeeping gene, and to DMSO controls. Data are the average of technical replicates (+SD) from a single experiment.
For data set [3], the target named is T2, LigF (Sphingobium sp., UniProt P30347).
T2 construct: made in house; host or cells: E. coli BL21 (DE3) Rosetta lysS
T2 sequence (P30347 1-257): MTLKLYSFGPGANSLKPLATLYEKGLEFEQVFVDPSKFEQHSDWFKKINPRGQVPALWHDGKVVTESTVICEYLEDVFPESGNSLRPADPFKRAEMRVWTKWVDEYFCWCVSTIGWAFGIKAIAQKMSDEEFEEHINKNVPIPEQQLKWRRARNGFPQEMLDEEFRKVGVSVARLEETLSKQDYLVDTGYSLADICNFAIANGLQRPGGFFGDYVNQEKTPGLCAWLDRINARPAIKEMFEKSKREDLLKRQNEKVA
As to the kind of experiment: In vitro LigF cleavage of prodrug, HPLC-MS/MS. As to conditions: 37° C. The format is biochemical, Sphingobium sp. strain SYK-6. The procedure:
Similar to the in vitro assay in 5.2., the compound of formula VII was diluted from a 30 mM stock solution in DMSO to 50 μM in 20 mM Tris-HCl (pH 7.5), 1 mM glutathione and 15 μg/ml LigF was added. However, the reaction mixture was incubated at 37° C. and the read-out was different: using HPLC-MS/MS. Reaction samples, as well as a control sample without enzyme and Z-4-OHT (4-hydroxytamoxifen) as a standard were diluted 2:3 in MeOH and 2 μl was injected onto a BioBasic C18 column (5 μm, 2.1×150 mm, Thermo; using a Thermo EC Finnigan Mod Micro AS autosamples and Thermo EC Quarternary pump, Finnigan Mod. Surveyor MS chromatograph) with a water-MeOH gradient (60-90% MeOH in 30 min; 90-100% in 5 min; 100 μl/min flow rate). LC-MS coupling was performed with the Advion Triversa Nanomate (Advion BioSciences, Ithaca, N.Y., USA) as the nanoESI source performing nanoelectrospray through chip technology. The Nanomate was attached to an LTQ-FT Ultra mass spectrometer and operated at a spray voltage of 1.7 kV and a delivery pressure of 0.5 psi in positive mode. In a LTQ-FT Ultra (Thermo Scientif) mass spectrometer, analyses were performed using 40V capillary voltage and 120V tube lens voltage. MS/MS was operated in a data-dependent acquisition (DDA) mode and in selected reaction monitoring (SRM) mode. Survey MS scans were acquired in the FT with the resolution (defined at 400 m/z) set to 100,000. Up to six of the most intense ions per scan were fragmented and detected in the linear ion trap. The ion count target value was 1,000,000 for the survey scan and 50,000 for the MS/MS scan. Target ions already selected for MS/MS were dynamically excluded for 30 s. For SRM, maximum injective was set to 400 ms and 2 microscans average.
Data are represented as XIC (extracted ion chromatogram) peak areas of parallel reaction monitoring (PRM) transitions, using QuanBrowser (Xcalibur software 2.0SR2).

For data set [4], the target named is T3, Cre-ER^T2 fusion protein (Homo sapiens, UniProt P03372, G400V/L544A/M543A/V595A).
T3 construct: Cre recombinase (fusion partner); tissue Jax Stock: 008085; host or cells: liver of transgenic UbCre-ER^T2; mTmG mice (transgene product); the other entry of the earlier key: cre (P06956, Recombinase cre)
As to the kind of experiment: In vivo gene recombination in UbCre-ER^T2; mTmG mice (EGFP immunohistochemistry). The arrangement: species or system mouse. The procedure:
Using the UbCre-ER^T2; mTmG mice described in example 6, we treated these animals with the prodrug of formula VII at 1 or 5 μmol (approximately 0.6 or 3 mg, respectively) or with a vehicle control (oil). Five days after treatment, mice were sacrificed, and the liver was fixed overnight in 10% phosphate-buffered formalin (sigma) and embedded in paraffin, similar to the description of example 3 (FIG. 1).

For data set [5], the target named is T4, human ALK5 (Homo sapiens, UniProt P36897).
T4 construct: purchased Eurofins (Kinase Profiler service)
T4 sequence (P36897 34-503): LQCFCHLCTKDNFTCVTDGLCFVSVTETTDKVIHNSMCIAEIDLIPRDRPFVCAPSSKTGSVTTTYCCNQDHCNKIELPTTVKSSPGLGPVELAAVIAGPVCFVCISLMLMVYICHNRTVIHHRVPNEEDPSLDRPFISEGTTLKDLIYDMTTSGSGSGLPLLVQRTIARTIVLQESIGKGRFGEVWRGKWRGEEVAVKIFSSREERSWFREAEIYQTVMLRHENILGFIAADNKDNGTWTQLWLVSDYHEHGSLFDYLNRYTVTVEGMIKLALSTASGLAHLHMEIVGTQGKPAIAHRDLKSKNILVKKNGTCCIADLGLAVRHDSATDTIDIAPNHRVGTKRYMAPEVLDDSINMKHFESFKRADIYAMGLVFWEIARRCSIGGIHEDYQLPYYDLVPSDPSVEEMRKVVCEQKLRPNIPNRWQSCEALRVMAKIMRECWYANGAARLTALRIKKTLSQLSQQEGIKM
As to the kind of experiment: KinaseProfiler enzymatic activity inhibition. The format is biochemical. Conditions: KinaseProfiler, 9-point curve, top 10 μM; read-out: Enzyme activity inhibition IC50 (nM) ALK5 (TGFBR1). The procedure:
Briefly, human ALK5 was incubated with 8 mM MOPS pH 7.0, 0.2 mM EDTA, 1 mM MnCl2, 2 mg/mL casein, 10 mM MgAcetate and [γ-33P-ATP] (specific activity approx. 500 cpm/pmol, concentration as required). The reaction was initiated by the addition of the MgATP mix. After incubation for 40 minutes at room temperature, the reaction was stopped by the addition of a 3% phosphoric acid solution. 10 μL of the reaction was then spotted onto a P30 filtermat and washed three times for 5 minutes in 75 mM phosphoric acid and once in methanol prior to drying and scintillation counting.
Compounds were tested using a 9-point curve with half-Log serial dilutions. The top concentration tested was 10 μM. Test compounds were prepared in 100% DMSO.

The subject of data set [6] is MTO129 liver metastases. As to the kind of experiment: Mouse liver metastasis initiation/formation assay with MTOs. The format is in vivo. As to conditions: FIG. 13, 1× dose. From the text: Mouse tumor organoids (MTOs) are derived from compound transgenic mice (conditional mutations in Apc, Kras, Trp53 and Tgfbr2, as well as bearing Lgr5-EGFP/CreER^T2) of the C57BL6/J strain and cultured as described in Tauriello et al. 2018 Nature 554(7693): 538-543. doi: 10.1038/nature25492. Organoids are tumor epithelial cells grown in a 3D matrix where they adopt an organotypic architecture, typically as spheroids with a lumen. In this way, cells retain a relatively normal polarity (which means that the outside surface, inside/luminal surface and cell-cell contacts are individually specialized), which is more physiological than in conventional 2D cell culture.
In all experiments described in present invention MTO129 were used (Tauriello et al. Nature. 2018).
In patients, treatment doses were reduced to 80 to 150 mg b.i.d in a regime of 14 days on-14 days off.
MTOs expressing a luciferase reporter were measured by bioluminescence imaging, using retroorbital injection of 50 μl 15 mg/ml D-luciferin potassium salt (Resem BV). Photons per second from the region spanning thorax/abdomen were quantified and normalized to the measure at the day of injection.
Control mice were treated with 150 μl of vehicle.
In the experiment shown in FIG. 13, potency of the indicated compounds to inhibit metastasis formation was assessed. Mice were treatments with indicated compounds started two days after MTO129 transplantation and continued during two weeks. Mice were sacrificed at 4 weeks post transplantation and liver metastases (LiMs) were counted by eye on fixed livers.

Where [7] appears, read: UbC-Cre-ER^T2, mTmG MEFs with LigF-expressing MTO129, 1000 to 1 nM, two days.

Regarding “4-hydroxytamoxifen [4-OHT, reference compound]”, the “gene recombination in MEFs (fraction EGFP positive)” value in data set [1] (setting [7]) is “dose-dependent gene recombination”. In data set [2] (HEK293T negative for LigF, 1 μM), the “transcriptional switch (KRT20 up, ASCL2 down)” value is “able to induce the transcriptional switch”.
As to `CCC(=C(c1ccc(OCCN(C)C)cc1)c1ccc(OCC(=O)c2ccc(O)c(OC)c2)cc1)c1ccccc1` (racemic) [prodrug of formula VII, 2-(4-(1-(4-(2-(dimethylamino)ethoxy)phenyl)-2-phenylbut-1-en-1-yl)phenoxy)-1-(4-hydroxy-3-methoxyphenyl)ethan-1-one], in data set [1] (setting [7]), the “gene recombination in MEFs (fraction EGFP positive)” value was “very similar to 4-OHT”. The “gene recombination in MEFs (fraction EGFP positive)” value in data set [1] (without LigF etherase (printed: MEFs lacking UbC-ER^T2)) was “only some recombination at the highest dose”. In addition, the “transcriptional switch (KRT20 up, ASCL2 down)” value in data set [2] (HEK293T-LigF, 10 μM) is “achieved the same response”. Also, in data set [3] (50 μM, 15 μg/ml LigF), the cleavage plateau is reported as 50%, the “time to half way to the plateau” value turned out to be 3 h and the “time to reach cleavage plateau” value is listed as “approximately 30 hours”. Besides, the “stability in control without LigF” value in data set [3] (all other components present) is “remained intact”. Also, in data set [4] (1 or 5 μmol, five days after treatment), the “gene recombination and EGFP expression in liver” value is “dose-dependent activation of gene recombination and EGFP expression”. The “gene recombination in peripheral tissues compared to the liver” value in data set [4] (Example 7 mouse treatment) was “lower”.
Regarding `Oc1ccc2c(-c3c(-c4ccccn4)nn4c3CCC4)ccnc2c1` [Reference compound 337, 4-(2-pydridin-2-yl-5,6-dihydro-4H-pyrrolo[1,2-b]pyrazol-3-yl)-quinolin-7-ol, reference compound], the IC50 in data set [5] amounted to 320 nM.
The same measure, in the same setting: the value for `Cc1cccc(-c2nn3c(c2-c2ccnc4cc(O)ccc24)CCC3)n1` [Reference compound 338, 4-[2-(methyl-pyridin-2-yl) 5,6-dihydro-4H-pyrrolo[1,2-b]pyrazol-3-yl]-quinolin-7-ol, reference compound] was 371 nM; that for `COc1cc(C(=O)COc2ccc3nccc(-c4c(-c5cccc(C)n5)nn5c4CCC5)c3c2)ccc1O` [prodrug of formula III, 1-(4-hydroxy-3-methoxyphenyl)-2-((4-(2-(6-methylpyridin-2-yl)-5,6-dihydro-4H-pyrrolo[1,2-b]pyrazol-3-yl)quinolin-6-yl)oxy)ethan-1-one] was 836 nM.
Regarding `Cc1cccc(-c2nn3c(c2-c2ccnc4ccc(OC(=O)N5CCC(N6CCCCC6)CC5)cc24)CCC3)n1` [prodrug of formula IV, 4-(2-(6-methylpyridin-2-yl)-5,6-dihydro-4H-pyrrolo[1,2-b]pyrazol-3-yl)quinolin-6-yl [1,4′-bipiperidine]-1′-carboxylate], the “activity in preventing liver metastasis formation, in words” value in data set [6] was “more robustly than galunisertib”. Besides, in data set [5], the IC50 was 2280 nM.

One may read the IC50 as the midpoint of a concentration-inhibition curve.
